Here are results for 17 substances from US7632933B2, “Corticotropin releasing factor 2 receptor agonists” (priority 2002, dated 2009).

For one assay, the target named is T1, CRF2R (Homo sapiens, UniProt Q13324).
T1 sequence (Q13324 1-411): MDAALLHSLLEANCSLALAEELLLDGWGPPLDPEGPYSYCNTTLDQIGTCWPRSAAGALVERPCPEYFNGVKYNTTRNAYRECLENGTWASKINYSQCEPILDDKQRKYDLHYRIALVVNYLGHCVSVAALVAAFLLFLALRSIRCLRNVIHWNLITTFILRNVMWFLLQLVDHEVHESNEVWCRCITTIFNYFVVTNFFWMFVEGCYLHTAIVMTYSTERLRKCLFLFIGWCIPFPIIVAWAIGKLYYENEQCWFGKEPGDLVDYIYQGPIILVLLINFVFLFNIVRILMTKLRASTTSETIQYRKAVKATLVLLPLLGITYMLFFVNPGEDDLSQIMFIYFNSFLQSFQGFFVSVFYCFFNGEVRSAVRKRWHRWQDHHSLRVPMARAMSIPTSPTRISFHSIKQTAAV
Put plainly: CRF2R agonist activity (EC50 and Emax), called comparative CRF binding. The assay is classed as cell-based. Conditions: CRF2R; read-out: CRF2R EC50. The method, boiled down:
(§1)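 Agonism measured through CRE-linked reporter expression or lysate cAMP after peptide treatment of CRF1R- or CRF2R-expressing cells, compared against vehicle-treated cells; background from a co-expressed non-target CRFR is subtracted.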

A further assay deals with T2, CRF1R (Homo sapiens, UniProt P34998).
T2 sequence (P34998 24-415): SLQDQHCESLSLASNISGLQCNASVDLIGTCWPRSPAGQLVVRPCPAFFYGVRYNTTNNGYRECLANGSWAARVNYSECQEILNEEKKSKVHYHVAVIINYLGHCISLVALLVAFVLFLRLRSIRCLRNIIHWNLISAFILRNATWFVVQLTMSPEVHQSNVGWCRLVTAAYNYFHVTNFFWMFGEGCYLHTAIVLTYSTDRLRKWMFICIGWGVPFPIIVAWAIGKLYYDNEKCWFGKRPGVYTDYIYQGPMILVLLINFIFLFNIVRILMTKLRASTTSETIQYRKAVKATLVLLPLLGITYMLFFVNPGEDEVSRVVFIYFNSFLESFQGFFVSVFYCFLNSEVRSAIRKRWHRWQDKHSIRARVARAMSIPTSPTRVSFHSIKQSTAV
Put plainly: CRF1R agonist activity (EC50 and Emax), called comparative CRF binding. The assay is classed as cell-based. Conditions: CRF1R; read-out: CRF1R EC50. An outline of the steps:
as §1

Ends that are not written are not given here.

For “SQEPPISLDLPFQLLREVLEMTKADQLAQQAHSNRKLLDIA-NH2 [compound 91]”, the concentration for a half-maximal effect (EC50) on CRF2R and on CRF1R was ≥ 100 nM each time.

Consider “SQEPPISLDLPFYLLREVLEMTKADQLAQQAHSNRKLLDIA-NH2 [compound 96]”, for which the EC50 at CRF2R and on CRF1R was ≥ 100 nM each time.

In the case of “SQEPPISLDLPIGLLREVLEMTKADQLAQQAHSNRKLLDIA-NH2 [compound 93]”, the EC50 on CRF2R and on CRF1R was ≥ 100 nM in each case.

As for “SQEPPISLDLPIHLLREVLEMTKADQLAQQAHSNRKLLDIA-NH2 [compound 94]”, the EC50 on CRF2R and at CRF1R was ≥ 100 nM each time.

As to “SQEPPISLDLPIQLLREVLEMTKADQLAQQAHSNRKLLDIA-NH2 [compound 100]”, the EC50 at CRF2R and on CRF1R was ≥ 100 nM each time.

With “SQEPPISLDLPLGLLREVLEMTKADQLAQQAHSNRKLLDIA-NH2 [compound 90]”, the EC50 at CRF2R and on CRF1R was ≥ 100 nM in each case.

Take “SQEPPISLDLPLHLLREVLEMTKADQLAQQAHSNRKLLDIA-NH2 [compound 102]”: the EC50 on CRF2R and at CRF1R was ≥ 100 nM throughout.

As for “SQEPPISLDLPLQLLREVLEMTKADQLAQQAHSNRKLLDIA-NH2 [compound 95]”, the 50% effective concentration (EC50) on CRF2R and at CRF1R was ≥ 100 nM throughout.

Take “SQEPPISLDLPLYLLREVLEMTKADQLAQQAHSNRKLLDIA-NH2 [compound 101]”: the EC50 at CRF2R and on CRF1R was ≥ 100 nM in each case.

For “SQEPPISLDLPTELLREVLEMTKADQLAQQAHSNRKIIDIA-NH2 [compound 92]”, the EC50 on CRF2R and on CRF1R was ≥ 100 nM each time.

In the case of “SQEPPISLDLPTGLLREVLEMTKADQLAQQAHSNRKLLDIA-NH2 [compound 98]”, the EC50 at CRF2R and at CRF1R was ≥ 100 nM in each case.

Take “SQEPPISLDLPTHLLREVLEMTKADQLAQQAHSNRKLLDIA-NH2 [compound 99]”: the EC50 at CRF2R and on CRF1R was ≥ 100 nM throughout.

With “SQEPPISLDLPTQLLREVLEMTKADQLAQQAHSNRKLLDIA-NH2 [compound 105]”, the EC50 at CRF2R and on CRF1R was ≥ 100 nM in each case.

As for “SQEPPISLDLPTYLLREVLEMTKADQLAQQAHSNRKLLDIA-NH2 [compound 106]”, the 50% effective concentration (EC50) at CRF2R and on CRF1R was ≥ 100 nM throughout.

In the case of “SQEPPISLDLTFGLLREVLEMTKADQLAQQAHSNRKLLDIA-NH2 [compound 88]”, the 50% effective concentration (EC50) on CRF2R and at CRF1R was ≥ 100 nM throughout.

As for “SQEPPISLDLTIGLLREVLEMTKADQLAQQAHSNRKLLDIA-NH2 [compound 86]”, the EC50 on CRF2R and on CRF1R was ≥ 100 nM throughout.

Take “SQEPPISLDLTIHLLREVLEMTKADQLAQQAHSNRKLLDIA-NH2 [compound 87]”: the concentration for a half-maximal effect (EC50) on CRF2R and on CRF1R was ≥ 100 nM throughout.
